{"source": "ChEMBL document CHEMBL2440070", "about": "“Synthesis and evaluation of novel azetidine analogs as potent inhibitors of vesicular [3H]dopamine uptake” (Bioorg Med Chem, 2013)", "data": [{"target": "Synaptic vesicular amine transporter (Rattus norvegicus, UniProt Q01827)", "sequence (Q01827 whole entry)": "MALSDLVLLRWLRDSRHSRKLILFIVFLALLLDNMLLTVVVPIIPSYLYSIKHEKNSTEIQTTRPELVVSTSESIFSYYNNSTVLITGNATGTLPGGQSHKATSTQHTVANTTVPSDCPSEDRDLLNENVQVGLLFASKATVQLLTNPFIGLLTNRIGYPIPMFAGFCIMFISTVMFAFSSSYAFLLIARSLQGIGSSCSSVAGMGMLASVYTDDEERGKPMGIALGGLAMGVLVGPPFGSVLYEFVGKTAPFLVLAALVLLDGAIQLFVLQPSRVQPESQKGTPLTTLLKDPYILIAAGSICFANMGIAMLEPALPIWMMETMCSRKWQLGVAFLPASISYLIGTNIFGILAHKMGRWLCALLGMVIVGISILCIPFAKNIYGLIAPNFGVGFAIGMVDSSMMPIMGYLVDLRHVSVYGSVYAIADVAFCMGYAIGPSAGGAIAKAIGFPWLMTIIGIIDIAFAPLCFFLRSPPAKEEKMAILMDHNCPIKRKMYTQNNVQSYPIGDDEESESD", "assay": "Inhibition of VMAT2-mediated [3H]-dopamine uptake in rat striata isolated synaptic vesicles by liquid scintillation spectroscopy", "units": {"Ki": "µM"}, "values": [{"molecule": "c1ccc(CC[C@H]2CCC[C@@H](CCc3ccccc3)N2)cc1", "Ki": 0.043}, {"molecule": "c1ccc(CC[C@@H]2C[C@H](CCc3ccccc3)N2)cc1", "Ki": 0.062}, {"molecule": "COc1ccc(CC[C@@H]2C[C@H](CCc3ccc(OC)cc3)N2)cc1", "Ki": 0.024}, {"molecule": "c1cc2c(cc1CC[C@@H]1C[C@H](CCc3ccc4c(c3)OCO4)N1)OCO2", "Ki": 0.055}, {"molecule": "c1ccc(CC[C@@H]2C[C@@H](CCc3ccccc3)N2)cc1", "note": "(racemic)", "Ki": 0.048}, {"molecule": "COc1ccc(CC[C@@H]2C[C@@H](CCc3ccc(OC)cc3)N2)cc1", "note": "(racemic)", "Ki": 0.066}, {"molecule": "c1cc2c(cc1CC[C@@H]1C[C@@H](CCc3ccc4c(c3)OCO4)N1)OCO2", "note": "(racemic)", "Ki": 0.031}]}]}
